Experiment: attempt to prepare 0.2 mol/L aqueous solution of Mn(II) complex (deposition of manganese compound)
Format: physicochemical
Conditions: target concentration 0.2 mol/L, metal:ligand 1:1, pH 7, with Na2SO4
Source text: Accordingly, it was known that if malonic acid as a polycarboxylic acid is used instead of polyethyleneimine, it is impossible to prepare a cathode electrolyte containing a Mn(II) complex in a sufficient concentration.
Accordingly, it was known that if succinic acid as a polycarboxylic acid is used instead of polyethyleneimine, it is impossible to prepare a cathode electrolyte containing a Mn(II) complex at a sufficient concentration.
Accordingly, it was known that if ethylenediamine is used instead of polyethyleneimine, it is impossible to prepare a cathode electrolyte containing a Mn(II) complex at a sufficient concentration.
Meanwhile, the cathode electrolyte was prepared as follows. Firstly, 0.1 mol (6.0 g) of ethylenediamine was added to and dissolved in 70 ml of distilled water.

Mn(II)-malonic acid complex
deposition of manganese compound on preparing aqueous solution: manganese compound is immediately deposited
